Test results reported in patent US12234221B2, “Pyridine carboxamide compounds for inhibiting NAV1.8” (Lieber Institute, Inc., priority 2018, dated 2025).

Biological target: T1, human Nav1.8 (hNav1.8) ion channel (Homo sapiens, UniProt Q9Y5Y9)
T1 construct: expressed in transfected cells; host or cells: HEK293
Assay: Nav1.8 channel inhibition, estimated IC50 (one or more of: fluorescence inhibition assay, PatchXpress, IonFlux HT automated patch clamp)
Format: cell-based
Details: HEK293 cells stably expressing hNav1.8; method used per compound not stated; read-out: Activity range (estimated IC50)
Summary of the method: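 HEK293 cells stably expressing hNav1.8 with β1/β2 subunits; IC50 from the fluorescence assay and/or automated whole-cell patch clamp (PatchXpress, IonFlux HT). Fluorescence: ANG-2 Na dye, 5 min compound preincubation (0.02–5 μM, 1% DMSO) with 30 μM ouabain, stimulation by 10 μM deltamethrin, peak signal fit logistically. PatchXpress: holding potential reset to Vhalf, inhibition normalized to control/washout currents.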

T1 sequence (Q9Y5Y9 whole entry): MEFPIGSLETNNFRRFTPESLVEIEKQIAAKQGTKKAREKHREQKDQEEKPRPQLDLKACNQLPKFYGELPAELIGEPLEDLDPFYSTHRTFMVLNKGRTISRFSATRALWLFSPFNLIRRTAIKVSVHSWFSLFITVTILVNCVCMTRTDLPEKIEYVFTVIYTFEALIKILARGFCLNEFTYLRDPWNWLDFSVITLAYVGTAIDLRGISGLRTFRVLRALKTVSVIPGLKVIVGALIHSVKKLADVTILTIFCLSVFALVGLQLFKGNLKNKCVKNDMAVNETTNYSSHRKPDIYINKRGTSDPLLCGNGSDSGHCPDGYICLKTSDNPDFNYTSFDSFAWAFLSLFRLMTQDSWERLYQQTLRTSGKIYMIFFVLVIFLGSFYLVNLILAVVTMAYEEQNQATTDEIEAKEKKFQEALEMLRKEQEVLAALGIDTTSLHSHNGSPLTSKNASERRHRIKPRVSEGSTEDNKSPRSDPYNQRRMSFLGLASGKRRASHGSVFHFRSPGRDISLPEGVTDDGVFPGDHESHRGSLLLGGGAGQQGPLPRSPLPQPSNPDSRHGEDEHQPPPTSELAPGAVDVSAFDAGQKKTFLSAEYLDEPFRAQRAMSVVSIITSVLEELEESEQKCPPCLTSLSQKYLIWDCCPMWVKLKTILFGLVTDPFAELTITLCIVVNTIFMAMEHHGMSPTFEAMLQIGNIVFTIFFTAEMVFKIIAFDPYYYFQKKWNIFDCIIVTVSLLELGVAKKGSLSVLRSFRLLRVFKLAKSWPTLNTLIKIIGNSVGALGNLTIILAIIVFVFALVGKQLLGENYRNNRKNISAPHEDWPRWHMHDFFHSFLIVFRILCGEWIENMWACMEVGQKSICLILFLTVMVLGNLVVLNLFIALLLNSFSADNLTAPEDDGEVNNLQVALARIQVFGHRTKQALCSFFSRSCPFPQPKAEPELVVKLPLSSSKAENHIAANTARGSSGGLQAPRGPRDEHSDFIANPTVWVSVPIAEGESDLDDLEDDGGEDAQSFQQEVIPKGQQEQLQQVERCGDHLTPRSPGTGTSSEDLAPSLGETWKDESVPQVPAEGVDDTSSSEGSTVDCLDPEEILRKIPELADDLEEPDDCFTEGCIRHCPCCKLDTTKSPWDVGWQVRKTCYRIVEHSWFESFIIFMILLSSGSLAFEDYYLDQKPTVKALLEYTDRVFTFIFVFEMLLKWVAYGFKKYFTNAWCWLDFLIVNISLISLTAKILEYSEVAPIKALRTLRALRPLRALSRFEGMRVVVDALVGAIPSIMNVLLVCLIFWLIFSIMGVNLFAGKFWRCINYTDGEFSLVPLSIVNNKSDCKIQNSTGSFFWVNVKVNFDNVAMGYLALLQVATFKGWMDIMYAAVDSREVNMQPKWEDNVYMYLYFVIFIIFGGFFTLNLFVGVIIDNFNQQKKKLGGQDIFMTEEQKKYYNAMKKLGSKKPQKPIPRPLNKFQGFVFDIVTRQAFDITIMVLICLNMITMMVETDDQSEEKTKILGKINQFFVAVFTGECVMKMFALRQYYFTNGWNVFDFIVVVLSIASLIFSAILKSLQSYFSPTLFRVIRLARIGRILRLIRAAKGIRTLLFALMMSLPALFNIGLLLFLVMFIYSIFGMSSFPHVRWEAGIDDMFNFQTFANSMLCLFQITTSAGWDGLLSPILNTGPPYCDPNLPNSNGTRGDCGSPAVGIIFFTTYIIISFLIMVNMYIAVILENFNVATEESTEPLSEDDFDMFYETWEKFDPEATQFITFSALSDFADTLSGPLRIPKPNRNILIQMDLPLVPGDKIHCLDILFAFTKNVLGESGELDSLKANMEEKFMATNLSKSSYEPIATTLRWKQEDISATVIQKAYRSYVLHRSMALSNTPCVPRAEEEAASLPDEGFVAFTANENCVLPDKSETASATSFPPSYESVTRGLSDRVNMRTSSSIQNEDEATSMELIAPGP

Row | Compound | IC50 [nM]
1 | Cc1cc(F)ccc1Oc1ncc(C(F)(F)F)cc1C(=O)Nc1cccc(S(C)(=O)=O)c1 [Example 113, 2-(4-fluoro-2-methyl-phenoxy)-N-(3-methylsulfonylphenyl)-5-(trifluoromethyl)pyridine-3-carboxamide] | 500 to 1000
2 | CN=S(C)(=O)c1cccc(NC(=O)c2cc(C(F)(F)F)cnc2Oc2ccc(F)cc2C)c1 (centres unmarked) [Example 114, N-[3-(N,S-dimethylsulfonimidoyl)phenyl]-2-(4-fluoro-2-methyl-phenoxy)-5-(trifluoromethyl)pyridine-3-carboxamide] | < 500
3 | Cc1cc(F)ccc1Oc1ncc(C(F)(F)F)cc1C(=O)Nc1cccc(S(C)(=N)=O)c1 (centres unmarked) [Example 115, 2-(4-fluoro-2-methyl-phenoxy)-N-[3-(methylsulfonimidoyl)phenyl]-5-(trifluoromethyl)pyridine-3-carboxamide] | < 500
4 | Cc1cc(F)ccc1Oc1ncc(C(F)(F)F)cc1C(=O)Nc1ccnnc1 [Example 116, 2-(4-fluoro-2-methyl-phenoxy)-N-pyridazin-4-yl-5-(trifluoromethyl)pyridine-3-carboxamide] | > 1000
5 | COc1cc(F)ccc1Oc1nc(C)ccc1C(=O)Nc1cccc(S(C)(=O)=O)c1 [Example 117, 2-(4-fluoro-2-methoxy-phenoxy)-6-methyl-N-(3-methylsulfonylphenyl)pyridine-3-carboxamide] | > 1000
6 | COc1cc(F)ccc1Oc1nc(C)c(C)cc1C(=O)Nc1cccc(S(C)(=O)=O)c1 [Example 118, 2-(4-fluoro-2-methoxy-phenoxy)-5,6-dimethyl-N-(3-methylsulfonylphenyl)pyridine-3-carboxamide] | < 500
7 | COc1cc(F)ccc1Oc1ncc(Cl)cc1C(=O)Nc1cccc(S(C)(=O)=O)c1 [Example 119, 5-chloro-2-(4-fluoro-2-methoxy-phenoxy)-N-(3-methylsulfonylphenyl)pyridine-3-carboxamide] | 500 to 1000
8 | COc1cc(F)ccc1Oc1nc2c(cc1C(=O)Nc1cccc(S(C)(=O)=O)c1)CCC2 [Example 120, 2-(4-fluoro-2-methoxy-phenoxy)-N-(3-methylsulfonylphenyl)-6,7-dihydro-5H-cyclopenta[b]pyridine-3-carboxamide] | < 500
9 | C[S+]([O-])c1cccc(NC(=O)c2cc(C(F)(F)F)cnc2Oc2ccc(OC(F)(F)F)cc2)c1 (centres unmarked) [Example 121, N-(3-methylsulfinylphenyl)-2-[4-(trifluoromethoxy)phenoxy]-5-(trifluoromethyl)pyridine-3-carboxamide] | < 500
10 | NS(=O)(=O)c1cccc(NC(=O)c2cc(C(F)(F)F)cnc2Oc2ccc(OC(F)(F)F)cc2)c1 [Example 122, N-(3-sulfamoylphenyl)-2-[4-(trifluoromethoxy)phenoxy]-5-(trifluoromethyl)pyridine-3-carboxamide] | < 500
11 | CS(=N)(=O)c1cccc(NC(=O)c2cc(C(F)(F)F)cnc2Oc2ccc(OC(F)(F)F)cc2)c1 (centres unmarked) [Example 123, N-[3-(methylsulfonimidoyl)phenyl]-2-[4-(trifluoromethoxy)phenoxy]-5-(trifluoromethyl)pyridine-3-carboxamide] | < 500
12 | CN=S(C)(=O)c1cccc(NC(=O)c2cc(C(F)(F)F)cnc2Oc2ccc(OC(F)(F)F)cc2)c1 (centres unmarked) [Example 124, N-[3-(N,S-dimethylsulfonimidoyl)phenyl]-2-[4-(trifluoromethoxy)phenoxy]-5-(trifluoromethyl)pyridine-3-carboxamide] | < 500
13 | CCS(=O)(=O)c1cccc(NC(=O)c2cc(C(F)(F)F)cnc2Oc2ccc(OC(F)(F)F)cc2)c1 [Example 125, N-(3-ethylsulfonylphenyl)-2-[4-(trifluoromethoxy)phenoxy]-5-(trifluoromethyl)pyridine-3-carboxamide] | < 500
14 | O=C(Nc1cccnc1)c1cc(C(F)(F)F)cnc1Oc1ccc(OC(F)(F)F)cc1 [Example 126, N-(3-pyridyl)-2-[4-(trifluoromethoxy)phenoxy]-5-(trifluoromethyl)pyridine-3-carboxamide] | 500 to 1000
